Patent US5792444A, “Labeled chemotactic peptides to image focal sites of infection or inflammation” (The General Hospital Corporation, priority 1993, dated 1998)
Where a SMILES comes first, the peptide text is derived from it. [ ]: non-standard residue; d: D form. The star is where a group is joined. HYNIC = NNc1ccc(C(=O)*)cn1; Ac6c = NC1(C(=O)O)CCCCC1; Nle = CCCC[C@H](N)C(=O)O; For = O=C*

What was measured:
E. coli infection = system: E. coli infection; design: species or system New Zealand white rabbits; details: rabbit, in vivo
Protocol: In order to determine the feasibility of using radiolabeled chemotactic peptides for infection localization in animals that are sensitive to the neutropenic effects of these agents, imaging studies were performed in rabbits with focal E. coli infections. High specific activity ^99m Tc-labeled chemotactic peptide was used in these studies. Six male New Zealand white rabbits weighing 2-3 kg were anesthetized with ketamine and xylazine (15.0 and 1.5 mg/kg) and injected in the left posterior thigh muscle with a 1.0 mL suspension of approximately 2×10^9 E. coli. […] Images were recorded for a preset time of 5 minutes/view with a 15% window centered to include the 140 KeV photopeak of ^99m Tc. […]
After acquiring the final images, the animals were sacrificed by pentobarbital overdose and samples of blood, heart, lung, liver, spleen, kidney, stomach, intestine, testes, bone, marrow, normal skeletal muscle, infected skeletal muscle, and pus were weighed and radioactivity was measured as described above. To correct for radioactive decay, aliquots of the injected doses were counted simultaneously. The results were expressed as percent injected dose per gram. […] The cells were washed with 0.9% NaCl and the residual radioactivity in the cells and supernatant measured. […]

[1] = biological target: T1, chemoattractant receptor on human PMN's (Homo sapiens, UniProt P21462); assay: For-MLF receptor binding assay (For-ML[3H]F displacement); details: 15 nM For-ML[3H]F, 45 min, 24° C.
T1 construct: endogenous in cells; host or cells: isolated human PMN's (neutrophils) from healthy volunteers, intact cells
T1 sequence (P21462 1-350): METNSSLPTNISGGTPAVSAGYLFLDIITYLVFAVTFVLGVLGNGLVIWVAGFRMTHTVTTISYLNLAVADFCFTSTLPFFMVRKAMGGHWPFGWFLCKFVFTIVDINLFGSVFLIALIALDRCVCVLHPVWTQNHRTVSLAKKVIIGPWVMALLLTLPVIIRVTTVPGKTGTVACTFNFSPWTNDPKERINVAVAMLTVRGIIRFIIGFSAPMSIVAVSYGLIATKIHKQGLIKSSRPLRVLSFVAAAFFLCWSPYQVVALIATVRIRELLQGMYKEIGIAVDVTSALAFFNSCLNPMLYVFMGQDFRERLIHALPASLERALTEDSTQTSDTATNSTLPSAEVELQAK
Protocol: Following incubation, the cells were filtered onto glass fiber discs (Whatman GF/C; Whatman, Inc., Clifton, N.J.) which were then washed with 20 mL of ice cold incubation buffer. The filters were placed in scintillation vials with 10 mL of Safety-Solve (Research Products International Corp., Mt. Prospect, Ill.) and radioactivity was measured by liquid scintillation spectroscopy. Specific binding is defined as total binding minus nonspecific binding. Nonspecific binding is the amount of residual bound radioactivity in the presence of 10 μM unlabeled For-MLF.
(§1) The chemical purity of the final product was evaluated by TLC, HPLC, UV spectroscopy, mass spectroscopy, and amino acid analysis. Determinations of the EC50 's for binding to the chemoattractant receptor on human PMN's and superoxide generation were performed as described in Pike, M. C., and Snyderman, R., Methods Enzymol. 162:236-245 (1988); Pike, M. C., et al., Blood 67:909-913 (1986); and Fischman, A. J., et al., J. Nucl. Med. 32:483-491 (1991).

[2] = Example 1: biological activity (EC50) of peptide and DTPA derivative
Text: The chemotactic peptide N-formyl-Nle-Leu-Phe-Nle-Tyr-Lys was synthesized using standard solid phase methods well-known in the art (Merrifield, R. B., J. Am. Chem. Soc. […]:2149-2154 (1963); Stewart, J. M., and Young, J. D., Solid Phase Peptide Synthesis, W. H. Freeman & Company, San Francisco, Calif. (1969)). The epsilon amino group of the C-terminal lysine was modified with DTPA using a cyclic anhydride. […] The peptide was readily radiolabeled with ^111 In.

sterile inflammation = system: sterile inflammation; design: species or system Rhesus monkeys; details: rhesus monkey, in vivo
Protocol: Two adult female Rhesus monkeys weighing approximately 10 kg were used in the imaging experiments. Since these animals had been used previously in imaging experiments with other radiopharmaceuticals, they had received numerous intramuscular injections in the right posterior thigh during the induction of anesthesia.
Under light ketamine anesthesia (5.5 mg/kg), the animals were injected intravenously through a leg vein with approximately 0.5 mCi ^99m -Tc-labeled peptide (<2.0 ng/kg). At 5 min, 30 min, 1 hr, and 19 hrs following injection of radiolabeled peptide, the animals were anesthetized with ketamine/xylazine (15.0 and 1.5 mg/kg) and whole body scintigrams were acquired using a large field of view gamma camera equipped with a parallel hole high resolution low energy collimator interfaced to a dedicated computer system (Technicare Gemini 700, Technicare 560, Solon, Ohio). […] At 5 minutes prior to injection and 1, 3, 5, and 15 minutes after injection 0.5 mL samples of blood were collected and the CBC was measured.
Regions of interest were drawn over: the whole animal, cardiac blood pool, lung, liver, spleen, kidney, intestine, bone, normal muscle, and inflamed muscle; and count densities (CPM/pixel) were calculated. The results were expressed as tissue-to-blood pool, % injected dose/gram (%ID/g) and target to background ratios (inflamed thigh/contralateral thigh).

human neutrophils = assay: Assay of superoxide production (ferricytochrome C reduction); type: cell-based; details: 0.1 μM
Protocol: as §1

rabbit neutrophils = assay: Lysozyme release in rabbit neutrophils; type: cell-based
Protocol: The peptide that was prepared and tested was formyl-Met-Acc^6 -Phe--OH.

neutrophils [3] = biological target: T2, neutrophils (Homo sapiens, UniProt P21462); assay: Chemoattraction of human neutrophils; type: cell-based
T2 sequence (P21462 1-350): T1 sequence (P21462 1-350)
Protocol: (§2) In another preferred embodiment of the present invention, Y is 4-aminotetrahydropyran-4-carboxylic acid (Thp). […] The peptide that was prepared and tested was formyl-Thp-Leu-Phe-OMe.
The peptide that was prepared and tested was formyl-Met-Dpg-Phe--OH

neutrophils [4] = biological target: T2, neutrophils; assay: Superoxide production by human neutrophils (backbone analog); type: cell-based
Protocol: as §2

neutrophils [5] = biological target: T2, neutrophils; assay: Free radicals antagonist (inhibition of ForMLF stimulated free radical chemiluminescence); type: cell-based
neutrophils [6] = biological target: T2, neutrophils; assay: MPO (myeloperoxidase assay) release; type: cell-based; details: pH5
Protocol: (§3) The procedure of Example 5 was repeated for additional CP's within the scope of the present invention. The results are shown in Table I. In the table, MPO is myeloperoxidase assay, a "-" sign means there was no effect at 30 μM, a "+" sign means there was a positive effect at 30 μM, and "N.T." means "Not

[7] = system: neutrophils / human umbilical vein endothelial cells; assay: Adhesion agonist (neutrophil-endothelial cell adhesion assay); type: cell-based; details: class symbol; read-out: Adhesion Agonist EC50
Protocol: (§4) The unconjugated peptide iBoc-MLFK was evaluated in a neutrophil-endothelial cell adhesion assay. In this assay, neutrophils (5×10^5) labeled with 5-carboxyfluorescein diacetate were added into wells of a 48 well dish containing confluent human umbilical vein endothelial cells. The iBoc-MLFK peptide was added at a concentration of 10 μM 10 min prior to stimulation of neutrophils with 30 nM ForMLF. Percent adhesion was determined by washing off unattached neutrophils after an incubation period of 25 minutes. This peptide inhibited adhesion by 66% at this concentration. Subsequently, concentrations between 0.1-3.0 μM were examined. […] Inhibition of adhesion would reduce the infiltration of leukocytes, such as neutrophils, to a diseased site, thereby limiting the tissue damage associated with inflammation.
as §3

neutrophils [8] = biological target: T2, neutrophils; assay: Free radicals agonist (neutrophil free radical chemiluminescence); type: cell-based; details: class symbol
neutrophils [9] = biological target: T2, neutrophils; assay: Binding (Table I, Cell Biology Data)
Text: Three non-DTPA derivatized peptides were included in the assay for comparison.

[10] = system: neutrophils / human umbilical vein endothelial cells; assay: cells; type: cell-based; details: read-out: Adhesion Antagonist IC50
Protocol: as §4, §3

Molecule: CSCC[C@H](NC=O)C(=O)N[C@@H](CC(C)C)C(=O)N[C@@H](Cc1ccccc1)C(=O)N[C@H](CCCCNC(=O)c1ccc(NN)nc1)C(N)=O [Example 99mTc-HP4, metal not drawn] (For-MLF[dK](HYNIC)-NH2)
- percent residual circulating radioactivity that was cell associated (E. coli infection): approximately 25%
- radioactivity of pus associated with WBC's (E. coli infection): approximately 90%

Molecule: CCCC[C@H](NC=O)C(=O)N[C@@H](CC(C)C)C(=O)N[C@@H](Cc1ccccc1)C(=O)N[C@@H](CCCC)C(=O)N[C@@H](Cc1ccc(O)cc1)C(=O)N[C@@H](CCCCN)C(=O)O [For-NleLFNleYK, N-formyl-norleucyl-leucyl-phenylalanyl-norleucyl-tyrosyl-lysine] (For-[Nle]LF[Nle]YK-OH)
- EC50 [1]: 1 nM
- EC50 [2]: ~1 nM

Molecule: CSCC[C@H](NC=O)C(=O)N[C@@H](CC(C)C)C(=O)N[C@@H](Cc1ccccc1)C(=O)NCCCCCCNC(=O)c1ccc(NN)nc1 [HP3, For-MLFNH(CH2)6 NH-HYNIC]
- effects on WBC level (sterile inflammation): no significant effects

Molecule: CCCCCCCCCCCCCC(=O)O[C@@H]1[C@@H](C)[C@@]2(O)[C@@H](C=C(CO)C[C@]3(O)C(=O)C(C)=C[C@@H]23)[C@@H]2C(C)(C)[C@]12OC(C)=O [PMA, phorbol myristate acetate]
- maximal response of superoxide production (human neutrophils): 22.9 nmol 02^- produced/10^6 cells/10 min

Molecule: CSCC[C@H](NC=O)C(=O)NC1(C(=O)N[C@@H](Cc2ccccc2)C(=O)O)CCCCC1 [formyl-Met-Acc^6 -Phe--OH] (For-Met-[Ac6c]-Phe-OH)
- lysozyme release (rabbit neutrophils): potent inducer of lysozyme release

Molecule: formyl-Thp-Leu-Phe-OMe
- chemoattractant activity (neutrophils [3]): chemoattractant agent to human neutrophils
- stimulation of superoxide production (neutrophils [4]): did not stimulate superoxide production

Molecule: iBoc--MLF--O--SPNH [Example 38]
- IC50 (neutrophils [5]): 5000 to 6000 nM
- EC50 (neutrophils [6]): 400 nM
- EC50 [7]: < 30000 nM
- EC50 (neutrophils [8]): > 30000 nM
- EC50 (neutrophils [9]): 150 to 5000 nM
- IC50 [10]: > 30000 nM
